Values of other authors, collected in patent US20170157075A1, “Edible Compositions and Methods for Promoting Alpha Brain Waves” (priority 2015, published 2017).

Columns and labels:
[1] = estimated
[2] = single 100 mg nighttime dose; placebo-controlled study
[3] = 300 mg per day; controlled trial
[4] = daily 20 mg for every 10 pounds of body weight; controlled study
[5] = 600-900 mg daily; twelve weeks
[6] = 300 mg per day
[7] = not given; remark: listed apart in the source
[8] = not given; remark: listed apart in the source

SMILES	share of an oral dose that ends up producing serotonin in the body [1]	effect on duration and depth of sleep [2]	effect on symptoms of fibromyalgia [3]	share of subjects with migraine attacks reduced in frequency, severity and duration (400 mg per day, well-controlled trial)	reduction of migraine headache attacks versus prescription medications (600 mg per day, adults, two double blind studies)	response of children with migraines and sleep problems [4]	average weight loss [5]	effect in depression [6]	side effects or interactions reported during the studies ([7]; cited 5-HTP studies, 100-900 mg daily)	effect of high doses on brain dopamine ([7]; high doses, over time (Hinz et al. 2011, 2012))	doses with no toxicity reports ([7]; humans, Examine.com summary)	therapeutic effect on cluster of mood symptoms versus placebo ([8]; 6 grams daily for 17 days, three consecutive cycles, 37 patients treated, 34 placebo)	withdrawals due to drug side effects ([8]; 6 grams daily, 71 women include placebo group)
N[C@@H](Cc1c[nH]c2ccc(O)cc12)C(=O)O [5-HTP, 5-hydroxytryptophan]	70%	sufficient to improve the duration and depth of sleep	effective in reducing many symptoms of fibromyalgia	90%	as effective as prescription medications	responded well	11 lbs	often effective	mild gastrointestinal disturbances in some people, mild nausea, heartburn, flatulence, feelings of fullness, and rumbling sensations	can lead over time to depletion of brain dopamine	≤ 50 mg/kg bodyweight	–	–
N[C@@H](Cc1c[nH]c2ccccc12)C(=O)O [L-tryptophan]	–	–	–	–	–	–	–	–	–	–	–	significant (p=0.004) therapeutic effect	1 of 71 women
